Measurements from US20190300885A1, “A NOVEL ROLE FOR TERMINAL RNA URIDYLATION AND RNA TURNOVER IN ONCOGENESIS” (Children's Medical Center Corporation, priority 2016, published 2019).
Entries after “also recorded” stand apart in the source; their conditions may differ.

Legend:
HCT116 cells [1] = assay: Growth curves of wild-type vs ZCCHC6 knockout HCT116 cells under increasing drug concentrations; type: cell-based, human; settings: HCT116, CRISPR/Cas9 ZCCHC6 knockout (KO) vs GFP-sgRNA control (WT)
Text: FIGS. 5A-5B. TUTase loss sensitizes cancer cells to disruption of RNA metabolism. […] Error bars indicate SEM (n=3); *P<0.05, **P<0.01.
Given the observed phenotypes, whether there are conditions that specifically sensitize cancer cells to TUTase loss was examined. In particular, since TUTases have been associated with RNA turnover, it was surmised that they may play an especially important role in the context of perturbed RNA metabolism. To address this hypothesis, small molecule agents that are known to cause DNA/RNA damage and thus impair RNA quality (doxorubicin, cisplatin, etoposide), as well as ones that inhibit nucleotide synthesis and thereby limit the pool of available nucleotides in the cell (5-fluorouracil and hydroxyurea) were selected, and wild-type and ZCCHC6 knockout HCT116 cells were treated with increasing concentrations of each agent (FIG. 5A). […] 5-FU has been specifically shown to target the RNA exosome complex, which may explain its differential activity from hydroxyurea in the experiments.

HCT116 cells [2] = assay: Growth/viability of wild-type vs TUTase knockout HCT116 cells under increasing bortezomib concentrations; type: cell-based, human; settings: HCT116, ZCCHC6 knockout vs WT
Text: FIG. 16. TUTase loss has a downstream impact on protein turnover. Top, the relative rates of global mRNA translation as measured by the OP-Puromycin fluorescent assay are shown. siNC=negative control siRNA; siZ6=siZCCHC6. Error bars indicate SEM (n=3); *P<0.05. Bottom, growth curves of HCT116 cells after CRISPR/Cas9-mediated knockout using a ZCCHC6-targeting sgRNA (KO) or a GFP-targeting control sgRNA (WT) under treatment with different concentrations of bortezomib are shown.
Given that TUTases affect mRNA turnover, it was also surmised that they may have a downstream effect on protein turnover. To address this hypothesis, the global rate of translation in TUTase knockdown versus control HCT116 cells was measured using the OP-Puromycin method. […] In addition, we treated wild-type and TUTase knockout HCT116 cells with increasing concentrations of bortezomib, an inhibitor of the proteasome and thus protein decay (FIG. 16).

SMILES: O=c1[nH]cc(F)c(=O)[nH]1 [5-fluorouracil]
- differential dose-dependent growth response of ZCCHC6 knockout vs wild-type cells (HCT116 cells [1]): reproducibly stronger effect on the knockout cells; also recorded: significantly stronger inhibitory effect on cells depleted of TUTase

SMILES: CC(C)C[C@H](NC(=O)[C@H](Cc1ccccc1)NC(=O)c1cnccn1)B(O)O [bortezomib]
- effect on cell viability in TUTase knockout vs wild-type cells (HCT116 cells [2]): stronger in the TUTase knockout cells

SMILES: N.N.[Cl][Pt][Cl] [cisplatin]
- differential dose-dependent growth response of ZCCHC6 knockout vs wild-type cells (HCT116 cells [1]): only 5-fluorouracil (5-FU) yielded a differential dose-dependent response

SMILES: COc1cccc2c1C(=O)c1c(O)c3c(c(O)c1C2=O)C[C@@](O)(C(=O)CO)C[C@@H]3O[C@H]1C[C@H](N)[C@H](O)[C@H](C)O1 [doxorubicin]
- differential dose-dependent growth response of ZCCHC6 knockout vs wild-type cells (HCT116 cells [1]): only 5-fluorouracil (5-FU) yielded a differential dose-dependent response

SMILES: COc1cc([C@@H]2c3cc4c(cc3[C@@H](O[C@@H]3O[C@@H]5CO[C@@H](C)O[C@H]5[C@H](O)[C@H]3O)[C@H]3COC(=O)[C@H]23)OCO4)cc(OC)c1O [etoposide]
- differential dose-dependent growth response of ZCCHC6 knockout vs wild-type cells (HCT116 cells [1]): only 5-fluorouracil (5-FU) yielded a differential dose-dependent response
